Earlier results as cited in patent US20040191345A1, “New formulations and use thereof” (priority 2003, published 2004).

What was measured:
[1] = n-octanol / phosphate buffer at pH 7.32
[2] = at room temperature

partition coefficient (Log P) [1]: 1.83
solubility in water [2]: about 11 mg/ml
pKa value: 9.87
Compound: Cc1ccc(O)c(C(CCN(C(C)C)C(C)C)c2ccccc2)c1 (stereo not drawn) [Tolterodine, N,N-diiso-propyl-3-(2-hydroxy-5-methylphenyl)-3-phenylpropanamine]
